Assay: Conversion of Form E on suspending and stirring in solvent (slurry)
Assay type: physicochemical
Excerpt: The anhydrate crystal form (Form E) can be converted to other crystal forms under suitable conditions.

In the case of C=Cc1cc(O)cc2nc(-c3ccc(O)c(F)c3)oc12 [Form E, 2-(3-fluoro-4-hydroxyphenyl)-7-vinyl-1,3-benzoxazol-5-ol], the “crystal form conversion after suspension and stirring” value (“crystal form conversion” for short) (suspended and stirred in acetone at room temperature for seven days) is reported as “another anhydrate crystal form is obtained”, the “crystal form conversion” value (suspended and stirred in ethanol at room temperature for seven days) is reported as “another anhydrate crystal form is obtained” and the “crystal form conversion” value (suspended and stirred in water at room temperature for seven days) is reported as “converted to a hydrate crystal form”.

— US20080146630A1, “CRYSTAL FORM OF 2-(3-FLUORO-4-HYDROXYPHENYL)-7-VINYL-1,3-BENZOXAZOL-5-OL” (WYETH, priority 2006, published 2008)
